# Laboratory results as given in patent US9790230B2 (Hoffmann-La Roche Inc., priority 2015, dated 2017).
# pKi: −log10 of the molar value. Read-outs that look alike come from different tables or passages of the source.
# Tests used:
# [1] = target: mouse TAAR1 (Mus musculus (Mouse), UniProt Q923Y8); experiment: Radioligand binding assay on mouse TAAR1
# Method: Radioligand Binding Assay on Mouse TAAR1
# Membrane Preparation and Radioligand Binding.
# HEK-293 cells stably expressing mouse TAAR1 were maintained at 37° C. and 5% CO2 in DMEM high glucose medium, containing fetal calf serum (10%, heat inactivated for 30 min at 56° C.), penicillin/streptomycin (1%), and 375 μg/ml geneticin (Gibco). Cells were released from culture flasks using trypsin/EDTA, harvested, washed twice with ice-cold PBS (without Ca^2+ and Mg^2+), pelleted at 1'000 rpm for 5 min at 4° C., frozen and stored at −80° C. Frozen pellets were suspended in 20 ml HEPES-NaOH (20 mM, pH 7.4) containing 10 mM EDTA and homogenized with a Polytron (PT 6000, Kinematica) at 14'000 rpm for 20 s. The homogenate was centrifuged at 48'000×g for 30 min at 4° C. Subsequently, the supernatant was removed and discarded, and the pellet resuspended in 20 ml HEPES-NaOH (20 mM, pH 7.4) containing 0.1 mM EDTA using the Polytron (20 s at 14'000 rpm). This procedure was repeated and the final pellet resuspended in HEPES-NaOH containing 0.1 mM EDTA and homogenized using the Polytron. Typically, aliquots of 2 ml membrane portions were stored at −80° C. With each new membrane batch the dissociation constant (Kd) was determined via a saturation curve. The TAAR1 radioligand ^3[H]—(S)-4-[(ethyl-phenyl-amino)-methyl]-4,5-dihydro-oxazol-2-ylamine (described in WO 2008/098857) was used at a concentration equal to the calculated Kd value, that was usually around 0.7 nM, resulting in the binding of approximately 0.5% of the radioligand and a specific binding representing approximately 70% of the total binding. Nonspecific binding was defined as the amount of ^3[H]—(S)-4-[(ethyl-phenyl-amino)-methyl]-4,5-dihydro-oxazol-2-ylamine bound in the presence of 10 M unlabeled ligand. All compounds were tested at a broad range of concentrations (10 pM to 10 μM) in duplicates. […] The 96 deep well plates were incubated for 1 hr at 4° C. Incubations were terminated by rapid filtration through Unifilter-96 plates (Packard Instrument Company) and glass filters GF/C (Perkin Elmer) presoaked for 1 hr in polyethylenimine (0.3%) and washed 3 times with 1 ml of cold binding buffer. After addition of 45 μl of Microscint 40 (PerkinElmer) the Unifilter-96 plate was sealed and after 1 hr the radioactivity counted using a TopCount Microplate Scintillation Counter (Packard Instrument Company).
# [2] = target: rat TAAR1 (Rattus norvegicus (Rat), UniProt Q923Y9); experiment: Radioligand binding assay on rat TAAR1;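 note: membranes from HEK293 cells stably transfected with rat TAAR1, tritiated TAAR1 radioligand, 1 h incubation at 4 °C, nonspecific binding determined with excess unlabeled ligand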
# Chain of rat TAAR1 (Q923Y9 whole entry): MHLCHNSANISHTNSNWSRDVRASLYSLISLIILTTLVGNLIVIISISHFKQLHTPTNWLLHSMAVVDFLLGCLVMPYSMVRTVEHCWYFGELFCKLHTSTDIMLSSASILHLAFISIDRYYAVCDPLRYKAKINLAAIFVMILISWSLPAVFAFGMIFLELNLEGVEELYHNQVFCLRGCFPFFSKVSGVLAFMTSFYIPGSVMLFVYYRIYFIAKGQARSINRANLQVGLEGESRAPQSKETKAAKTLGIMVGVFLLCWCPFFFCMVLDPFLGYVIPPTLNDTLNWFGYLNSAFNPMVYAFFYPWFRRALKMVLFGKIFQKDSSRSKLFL
# Chain of mouse TAAR1 (Q923Y8 whole entry): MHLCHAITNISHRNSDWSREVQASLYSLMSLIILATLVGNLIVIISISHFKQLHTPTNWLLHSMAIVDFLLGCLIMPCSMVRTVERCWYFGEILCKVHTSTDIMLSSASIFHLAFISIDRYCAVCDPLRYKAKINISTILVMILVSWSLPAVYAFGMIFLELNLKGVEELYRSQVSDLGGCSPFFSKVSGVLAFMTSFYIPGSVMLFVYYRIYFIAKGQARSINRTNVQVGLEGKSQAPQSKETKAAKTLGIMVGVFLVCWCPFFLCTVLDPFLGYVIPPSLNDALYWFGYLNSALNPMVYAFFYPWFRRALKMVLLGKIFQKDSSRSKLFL
Compound,pKi [1],pKi [2],"Ki ([2]; read-out: Ki (μM) rat, rat TAAR1, HEK-293 membranes, second value of cell mouse/rat)"
"O=C(Nc1ccc([C@H]2O[C@@H]3CN[C@H]2C3)cc1)c1[nH]nc(C2CC2)c1Cl [Example 37, 4-Chloro-3-cyclopropyl-N-[4-[(1S,3R,4S)-2-oxa-5-azabicyclo[2.2.1]heptan-3-yl]phenyl]-1H-pyrazole-5-carboxamide]",7.21,5.57,
"FC(F)(F)c1ccc(CNc2ccc([C@H]3O[C@@H]4CN[C@H]3C4)cc2)cc1 [Example 39, 4-[(1S,3R,4S)-2-Oxa-5-azabicyclo[2.2.1]heptan-3-yl]-N-[[4-(trifluoromethyl)phenyl]methyl]aniline]",8.16,6.44,
"CCCCNc1ccc([C@H]2O[C@@H]3CN[C@H]2C3)cc1 [Example 41, N-Butyl-4-[(1S,3R,4S)-2-oxa-5-azabicyclo[2.2.1]heptan-3-yl]aniline]",7.65,,2.83 µM
"O=C(Nc1ccc([C@H]2O[C@@H]3CN[C@H]2C3)cc1)c1ccnc(C(F)(F)F)n1 [Example 42, N-[4-[(1S,3R,4S)-2-Oxa-5-azabicyclo[2.2.1]heptan-3-yl]phenyl]-2-(trifluoromethyl)pyrimidine-4-carboxamide]",6.47,5.00,
"Cc1n[nH]c(C(=O)Nc2ccc([C@H]3O[C@@H]4CN[C@H]3C4)cc2)c1Cl [Example 46, 4-Chloro-3-methyl-N-[4-[(1S,3R,4S)-2-oxa-5-azabicyclo[2.2.1]heptan-3-yl]phenyl]-1H-pyrazole-5-carboxamide]",8.01,6.17,
"Cc1cn[nH]c1C(=O)Nc1ccc([C@H]2O[C@@H]3CN[C@H]2C3)cc1 [Example 47, 4-Methyl-N-[4-[(1S,3R,4S)-2-oxa-5-azabicyclo[2.2.1]heptan-3-yl]phenyl]-1H-pyrazole-5-carboxamide]",6.50,5.64,
"CCCc1c(Cl)c(C(=O)Nc2ccc([C@H]3O[C@@H]4CN[C@H]3C4)cc2)nn1C [Example 48, 4-Chloro-1-methyl-N-[4-[(1S,3R,4S)-2-oxa-5-azabicyclo[2.2.1]heptan-3-yl]phenyl]-5-propyl-pyrazole-3-carboxamide]",7.94,5.87,

# Continued by rising pKi [1], values first:
pKi [1],pKi [2],Compound,"Ki ([2]; read-out: Ki (μM) rat, rat TAAR1, HEK-293 membranes, second value of cell mouse/rat)"
6.20,6.72,"Fc1ccc(CNc2ccc([C@H]3O[C@@H]4CN[C@H]3C4)cc2)cc1 [Example 40, N-[(4-Fluorophenyl)methyl]-4-[(1S,3R,4S)-2-oxa-5-azabicyclo[2.2.1]heptan-3-yl]aniline]",
6.25,6.78,"Clc1ccc(CNc2ccc([C@H]3O[C@@H]4CN[C@H]3C4)cc2)cc1 [Example 38, N-[(4-Chlorophenyl)methyl]-4-[(1S,3R,4S)-2-oxa-5-azabicyclo[2.2.1]heptan-3-yl]aniline]",
7.49,5.89,"O=C(Nc1ccc([C@H]2O[C@@H]3CN[C@H]2C3)cc1)c1ccc(C(F)(F)F)cn1 [Example 36, N-[4-[(1S,3R,4S)-2-Oxa-5-azabicyclo[2.2.1]heptan-3-yl]phenyl]-5-(trifluoromethyl)pyridine-2-carboxamide]",
7.84,6.78,"CC(C)c1cc(C(=O)Nc2ccc([C@H]3O[C@@H]4CN[C@H]3C4)cc2)[nH]n1 [Example 43, 3-Isopropyl-N-[4-[(1S,3R,4S)-2-oxa-5-azabicyclo[2.2.1]heptan-3-yl]phenyl]-1H-pyrazole-5-carboxamide]",
7.95,7.07,"O=C(Nc1ccc([C@H]2O[C@@H]3CN[C@H]2C3)cc1)c1ccc(C(F)(F)F)nc1 [Example 44, N-[4-[(1S,3R,4S)-2-Oxa-5-azabicyclo[2.2.1]heptan-3-yl]phenyl]-6-(trifluoromethyl)pyridine-3-carboxamide]",
8.38,6.68,"CCOc1n[nH]c(C(=O)Nc2ccc([C@H]3O[C@@H]4CN[C@H]3C4)cc2)c1Cl [Example 45, 4-Chloro-3-ethoxy-N-[4-[(1S,3R,4S)-2-oxa-5-azabicyclo[2.2.1]heptan-3-yl]phenyl]-1H-pyrazole-5-carboxamide]",
